# Calls of active or inactive are those of the source.
# Experiments:
# [1] = inhibitors of intracellular T. cruzi replication, confirmation, NIH3T3 host cells, beta-gal luminescence (AID 2044); assay type: functional, cell-based;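 further: intracellular parasites grown in NIH/3T3 mouse fibroblasts as host cells; luminescent beta-galactosidase reporter signal from transgenic T. cruzi replicating inside host cells; inhibitors lower the luminescence signal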
# [2] = cytotoxicity toward NIH3T3 fibroblasts, dose response, counter-screen, cell-based, ATP luminescence, mouse fibroblasts (AID 2010); assay type: functional;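 further: cells exposed to compound for about 90 hours before reading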
# Cytochrome P450 3A4 = Cytochrome P450 3A4 (Homo sapiens, UniProt P08684);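 further: CYP3A4 tested as one member of a cytochrome P450 panel screen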
# Sequence of Cytochrome P450 3A4 (P08684 whole entry): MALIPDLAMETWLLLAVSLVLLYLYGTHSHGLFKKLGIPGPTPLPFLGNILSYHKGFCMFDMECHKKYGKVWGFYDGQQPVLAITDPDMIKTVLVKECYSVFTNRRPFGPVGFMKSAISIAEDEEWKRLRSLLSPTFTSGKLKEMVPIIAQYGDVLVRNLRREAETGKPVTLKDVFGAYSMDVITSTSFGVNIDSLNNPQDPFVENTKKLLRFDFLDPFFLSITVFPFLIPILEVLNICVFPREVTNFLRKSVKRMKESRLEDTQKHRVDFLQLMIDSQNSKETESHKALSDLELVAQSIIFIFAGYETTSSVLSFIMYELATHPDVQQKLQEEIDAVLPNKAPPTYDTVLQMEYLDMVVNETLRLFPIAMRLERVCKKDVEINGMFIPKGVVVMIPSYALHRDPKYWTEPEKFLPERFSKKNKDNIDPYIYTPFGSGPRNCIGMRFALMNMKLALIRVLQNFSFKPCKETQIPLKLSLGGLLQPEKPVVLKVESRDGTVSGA
# Cytochrome P450 2C19 = Cytochrome P450 2C19 (Homo sapiens, UniProt P33261); test: Cytochrome panel assay with activity outcomes. Panel member name: p450-cyp2c19 Compounds with AC50 equal or less than 10 uM are considered active; assay type: functional
# Sequence of Cytochrome P450 2C19 (P33261 whole entry, the tested form may be a part): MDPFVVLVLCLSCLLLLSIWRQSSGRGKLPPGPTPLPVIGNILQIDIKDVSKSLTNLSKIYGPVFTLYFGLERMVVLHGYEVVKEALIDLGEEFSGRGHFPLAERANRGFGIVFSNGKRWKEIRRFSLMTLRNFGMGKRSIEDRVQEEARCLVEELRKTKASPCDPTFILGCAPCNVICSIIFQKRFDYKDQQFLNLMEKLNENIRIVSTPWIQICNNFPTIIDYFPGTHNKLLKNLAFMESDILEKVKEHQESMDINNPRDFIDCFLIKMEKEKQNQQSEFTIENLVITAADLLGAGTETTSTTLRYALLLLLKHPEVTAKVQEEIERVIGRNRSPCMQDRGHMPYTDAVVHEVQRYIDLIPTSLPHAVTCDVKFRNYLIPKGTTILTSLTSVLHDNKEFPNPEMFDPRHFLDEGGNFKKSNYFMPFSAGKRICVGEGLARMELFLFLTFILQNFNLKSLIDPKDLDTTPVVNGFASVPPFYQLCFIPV
# [3] = target: T1, RNA-binding protein pos-1 (Caenorhabditis elegans, UniProt G5EF15); test: inhibitors of POS-1/mex-3 RNA binding, dose response, biochemical, fluorescence polarization (AID 1964);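 further: purified POS-1 fused to maltose binding protein made in E. coli; potency of compounds blocking POS-1 binding to fluorescent RNA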
# T1 sequence (G5EF15 whole entry): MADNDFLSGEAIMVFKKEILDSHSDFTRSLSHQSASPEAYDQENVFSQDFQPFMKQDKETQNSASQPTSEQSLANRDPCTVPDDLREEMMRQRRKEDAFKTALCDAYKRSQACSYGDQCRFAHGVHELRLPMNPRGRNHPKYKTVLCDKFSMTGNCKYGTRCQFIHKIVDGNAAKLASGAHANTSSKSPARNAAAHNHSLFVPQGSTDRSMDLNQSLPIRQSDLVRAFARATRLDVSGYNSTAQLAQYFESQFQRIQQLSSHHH
# [4] = target: T2, Zinc finger protein mex-5 (Caenorhabditis elegans, UniProt Q9XUB2); test: MEX-5/TCR-2 RNA interaction inhibitors, dose response, biochemical, C. elegans, fluorescence polarization (AID 1960)
# T2 sequence (Q9XUB2 whole entry): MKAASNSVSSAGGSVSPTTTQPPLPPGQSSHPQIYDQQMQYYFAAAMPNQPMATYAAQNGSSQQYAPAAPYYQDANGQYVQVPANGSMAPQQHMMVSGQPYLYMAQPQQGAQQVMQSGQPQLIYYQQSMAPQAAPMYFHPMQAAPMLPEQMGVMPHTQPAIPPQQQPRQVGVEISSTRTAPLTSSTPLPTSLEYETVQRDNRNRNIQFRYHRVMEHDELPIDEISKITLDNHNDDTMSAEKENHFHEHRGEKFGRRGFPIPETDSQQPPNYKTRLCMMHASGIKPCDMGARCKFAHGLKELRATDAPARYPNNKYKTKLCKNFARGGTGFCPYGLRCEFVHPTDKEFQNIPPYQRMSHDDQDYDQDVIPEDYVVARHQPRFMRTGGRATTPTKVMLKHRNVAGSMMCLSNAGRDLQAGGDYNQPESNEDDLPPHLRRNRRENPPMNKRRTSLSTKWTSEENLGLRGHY
# [5] = target: T3, Heat shock factor protein 1 (Mus musculus, UniProt P38532); test: HSF1 potentiators in luciferase reporter cells, confirmation, cell-based, NIH3T3, luminescence, dose retest (AID 435004); assay type: functional;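 further: stress induced by proteasome inhibitor MG132 added 30 min after compound; luciferase reporter driven by HSF1 response element in NIH3T3 cells; actives raise luminescence as potentiators of the MG132 stress response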
# T3 sequence (P38532 whole entry): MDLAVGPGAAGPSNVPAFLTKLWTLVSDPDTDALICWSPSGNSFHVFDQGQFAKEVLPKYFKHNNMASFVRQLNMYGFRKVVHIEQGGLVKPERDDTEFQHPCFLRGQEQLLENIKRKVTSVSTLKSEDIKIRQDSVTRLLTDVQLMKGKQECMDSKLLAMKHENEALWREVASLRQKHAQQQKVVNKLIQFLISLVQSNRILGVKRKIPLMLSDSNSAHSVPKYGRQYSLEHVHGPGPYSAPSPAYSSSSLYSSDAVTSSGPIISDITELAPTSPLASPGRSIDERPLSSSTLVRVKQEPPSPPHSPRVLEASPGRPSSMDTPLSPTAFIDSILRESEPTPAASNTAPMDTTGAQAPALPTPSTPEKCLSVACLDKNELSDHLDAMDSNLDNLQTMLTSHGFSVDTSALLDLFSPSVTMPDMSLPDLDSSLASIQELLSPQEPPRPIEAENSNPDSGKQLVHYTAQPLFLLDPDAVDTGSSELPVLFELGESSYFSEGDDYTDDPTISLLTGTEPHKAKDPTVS
# [6] = target: T4, Corticotropin-releasing factor receptor 2/Corticotropin-releasing factor-binding protein (Homo sapiens, UniProt P24387+Q13324); test: activators of CRF receptor 2 with binding protein – uHTS hits, confirmation (AID 602473); assay type: functional; settings: read-out: EC50_Mean
# T4 sequence (Q13324 whole entry): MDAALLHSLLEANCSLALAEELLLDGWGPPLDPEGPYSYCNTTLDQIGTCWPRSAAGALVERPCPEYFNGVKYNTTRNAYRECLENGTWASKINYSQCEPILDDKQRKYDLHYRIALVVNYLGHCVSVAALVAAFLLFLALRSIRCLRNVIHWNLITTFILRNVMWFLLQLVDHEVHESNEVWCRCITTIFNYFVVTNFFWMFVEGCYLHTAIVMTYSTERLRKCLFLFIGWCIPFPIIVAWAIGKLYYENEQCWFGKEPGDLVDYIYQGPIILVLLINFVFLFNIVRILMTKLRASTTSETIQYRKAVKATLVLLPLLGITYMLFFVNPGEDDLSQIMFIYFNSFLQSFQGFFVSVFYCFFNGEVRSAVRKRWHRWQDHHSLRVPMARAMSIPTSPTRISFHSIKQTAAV
# T4 sequence (P24387 whole entry): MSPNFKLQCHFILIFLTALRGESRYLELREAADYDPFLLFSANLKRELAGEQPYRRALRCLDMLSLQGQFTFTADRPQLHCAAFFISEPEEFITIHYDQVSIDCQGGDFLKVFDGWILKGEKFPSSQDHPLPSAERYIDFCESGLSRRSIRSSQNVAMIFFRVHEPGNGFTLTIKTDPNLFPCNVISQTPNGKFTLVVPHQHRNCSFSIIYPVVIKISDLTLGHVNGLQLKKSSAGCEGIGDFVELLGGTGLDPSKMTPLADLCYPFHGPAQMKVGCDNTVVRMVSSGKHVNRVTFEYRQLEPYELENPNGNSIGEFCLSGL
# [7] = tested on: Streptococcus sp. 'group A'; test: growth inhibition of control SK(-) GAS strain, dose response, counter-screen for streptokinase expression inhibitor project, luminescence, kanamycin, BacTiterGlo, confirmation (AID 1900); assay type: functional, organism-based
# Streptococcus = test: Group A Streptococcus viability loss, dose response, counter-screen for streptokinase expression inhibitor project, luminescence, BacTiterGlo (AID 1915); assay type: functional, organism-based;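 further: potency for reduction of bacterial viability or growth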
compound,measurement,setting,value
COC(=O)CCN(C(=O)c1cc([N+](=O)[O-])cc([N+](=O)[O-])c1)c1ccccn1,EC50,[1],1.38 µM (active)
same,EC50,[2],> 30 µM (not active)
Cc1ccsc1C(=O)C1CCCN(Cc2cnc(N(C)C)s2)C1 (stereo unspecified),EC50,[1],0.203 µM (active)
same,EC50,[2],> 60 µM (not active)
FC(F)(F)c1ccccc1-c1ccc2ncnc(N3CCOCC3)c2c1,AC50,Cytochrome P450 3A4,5.01 µM (inconclusive)
O=C(NNc1cccc(Cl)n1)Nc1ccccc1Cl,AC50,Cytochrome P450 2C19; read-out: AC50,6.31 µM (inconclusive)
CC(C)COc1ccc(/C=C2/Sc3ccccc3C2=O)cc1,EC50,[3],> 300 µM (not active)
same,EC50,[4],> 300 µM (not active)
COc1ccc(-c2nn(-c3ccccc3)cc2CNC(=O)c2cccc([N+](=O)[O-])c2)cc1,EC50,[1],1.75 µM (active)
same,EC50,[2],> 60 µM (not active)
Cc1ccnc(SCC(=O)c2ccc(Br)cc2)c1C#N,EC50,[1],0.932 µM (active)
same,EC50,[2],> 30 µM (not active)
O=C(NC1CCCC1)C(c1ccncc1)N(Cc1ccccc1)C(=O)c1ccc(-c2ccccc2)[nH]1 (stereo unspecified),EC50,[1],0.253 µM (active)
same,EC50,[2],> 60 µM (not active)
CN1CCN(NC(=O)/C=C/c2ccc(Br)cc2)CC1,EC50,[5],32.3 µM (active)
COc1ccc(S(=O)(=O)N(C)CC(=O)N2CCC(C(N)=O)CC2)cc1Cl,EC50,[5],> 260 µM (inactive)
O=C1C2ON(c3ccccc3)C(c3ccncc3)C2C(=O)N1c1ccccc1 (stereo unspecified),AC50,Cytochrome P450 2C19; read-out: AC50,0.0708 µM (inconclusive)
COc1ccc(/C=N/N=C2/CC(C)(C)Cc3nnc(O)cc32)cc1,EC50,[3],41.4 µM (active)
same,EC50,[4],38.1 µM (active)
O=C(CN1CCN(c2cccc(Cl)c2)CC1)Nc1ccc([N+](=O)[O-])cc1C(=O)Nc1ccccc1F,EC50,[1],1.01 µM (active)
same,EC50,[2],> 60 µM (not active)
CN(C)c1ncc2nc(-c3ccccc3)c(=O)n(C3CC3)c2n1,AC50,Cytochrome P450 2C19; read-out: AC50,39.8 µM (inconclusive)
Oc1nc2cc3c(cc2cc1C(c1nnnn1C1CCCC1)N1CCCc2ccccc21)OCCO3 (stereo unspecified),EC50,[6],> 53 µM (inactive)
COC(=O)c1cc(OC)c(OC)cc1N=C(S)N1CCCC1,EC50,[5],> 260 µM (inactive)
CCN(Cc1ccccc1)S(=O)(=O)c1cc(C(=O)NCC2CCCCC2)ccc1OC,EC50,[5],> 260 µM (inactive)
CNNCc1ccc(C(=O)NC(C)C)cc1 [PROCARBAZINE],AC50,Cytochrome P450 2C19; read-out: AC50,5.01 µM (inconclusive)
Cc1cc(/C=C2\C(=O)NC(=O)N(c3ccc(F)cc3)C2=O)c(C)n1-c1cccc(C(=O)O)c1,EC50,[3],> 300 µM (not active)
same,EC50,[4],> 300 µM (not active)
O=C(NC1C2CC3CC(C2)CC1C3)C1CC1 (stereo unspecified),EC50,[5],> 260 µM (inactive)
CC1=CC(C)(C)N(C(=O)CSc2nnc(N)s2)c2ccccc21,EC50,[6],> 53 µM (inactive)
CC1(OC(=O)CCc2ccccc2)C(=O)C=C2C=C(C3CC3)OC=C2C1=O (stereo unspecified),EC50,[3],36.6 µM (active)
same,EC50,[4],30.4 µM (active)
Cc1ccccc1NC(=O)C1CCCN(C(=O)NCc2ccccc2)C1 (stereo unspecified),EC50,[5],> 260 µM (inactive)
Cc1ccc(OCCOCCN2CCCC2)c(Br)c1,EC50,[1],0.96 µM (active)
same,EC50,[2],> 30 µM (not active)
Cc1nc(NCCc2c[nH]cn2)c2oc3ccccc3c2n1,EC50,[1],0.305 µM (active)
same,EC50,[2],> 60 µM (not active)
CCCc1nnc(SCC(=O)N2CCCCC2C)n1CC1CCCO1 (stereo unspecified),AC50,Cytochrome P450 2C19; read-out: AC50,25.1 µM (inconclusive)
Cn1c(CN2CCCC2)nc2cc(NC(=O)C3CCCCC3)ccc21,AC50,Cytochrome P450 2C19,inconclusive
Cc1cccc(NC(=O)C(C)N2C(=O)C3C4CC(C(Br)C4Br)C3C2=O)c1 (stereo unspecified),EC50,[6],9.65 µM (active)
O=C(CCN1C(=O)c2ccccc2C1=O)C1=NN[C@@H]2C(=O)N(c3ccc(F)cc3)C(=O)[C@H]12,EC50,[5],> 260 µM (inactive)
O=C(/C=C/c1ccc(Cl)cc1Cl)N(Cc1ccccc1)C1CCS(=O)(=O)C1 (stereo unspecified),EC50,[5],> 260 µM (inactive)
Cc1cc(C)cc(NC(=O)CN(C)S(=O)(=O)c2c[nH]cn2)c1,EC50,[5],> 260 µM (inactive)
S=C1NC2(CCS1)Oc1ccccc1C1CC(c3ccccc3)=NN12 (stereo unspecified),EC50,[3],> 300 µM (not active)
same,EC50,[4],> 300 µM (not active)
CC(C)(C)NC(=O)c1ccc2c(c1)N(CC(=O)N1CCCCC1)C(=O)C(C)(C)O2,EC50,[5],> 260 µM (inactive)
CCCC(Oc1ccc(Br)cc1)c1nc2c3cc(OC)c(OC)cc3nc(S)n2n1 (stereo unspecified),EC50,[7],0.253 µM (active)
same,EC50,Streptococcus,3.62 µM (active)
O=S(=O)([N-]c1nc2ccccc2nc1-[n+]1ccc(CCCc2ccccc2)cc1)c1cccs1,EC50,[3],35.4 µM (active)
same,EC50,[4],34 µM (active)
CCOC(=O)C1CCCN(C2CCN(Cc3nc(-c4ccccc4)no3)CC2)C1 (stereo unspecified),EC50,[1],0.524 µM (active)
same,EC50,[2],> 60 µM (not active)
CCSC1=N/C(=C\c2ccccc2)C(=O)N1,EC50,[3],> 300 µM (not active)
same,EC50,[4],> 300 µM (not active)
Cc1cc(C)cc(N2C(=O)NC(=O)/C(=C\c3cc(C)n(C)c3C)C2=O)c1,EC50,[3],6.75 µM (active)
same,EC50,[4],23.5 µM (active)
Clc1ccc(CCNc2nc3ccccc3n3nnnc23)cc1,EC50,[5],> 260 µM (inactive)
N#Cc1cc(NC(=O)c2ccc(F)cc2)c(O)n2c1nc1ccccc12,EC50,[3],21.7 µM (inconclusive)
same,EC50,[4],35 µM (active)
COc1ccc(NC(=O)C2CC(=O)N=C(Nc3cccc(C)c3)N2)cc1 (stereo unspecified),EC50,[5],> 260 µM (inactive)
COc1ccc2cc(/C(C)=N/NC(=S)Nc3cc(S(=O)(=O)N4CCOCC4)ccc3N3CCOCC3)ccc2c1,EC50,[1],0.572 µM (active)
same,EC50,[2],> 60 µM (not active)
CCCCOC(=O)CCc1c(C)n[nH]c1C,EC50,[5],> 260 µM (inactive)
COCCN1Cc2cccc(C(=O)Nc3cc(OC)ccc3OC)c2C1=O,EC50,[6],> 53 µM (inactive)
CCCCc1nnc(NC(=O)C(C)Sc2nc(C)cc(O)n2)s1 (stereo unspecified),EC50,[5],> 260 µM (inactive)
COc1ccc(C2C(C#N)=C(/N=C/N3CCN(C)CC3)OC3=C2C(=O)CC(C)(C)C3)cc1 (stereo unspecified),EC50,[3],> 300 µM (not active)
same,EC50,[4],> 300 µM (not active)
CC1(C)S[C@@H]2[C@H](NC(=O)Cc3ccccc3)C(=O)N2[C@H]1C(=O)O [PENICILLIN G],EC50,[7],< 0.06 µM (active)
same,EC50,Streptococcus,< 0.06 µM (active)
COc1cc2oc3ccc(C#Cc4ccc(N)cc4)cc3c(=O)c2cc1OC,EC50,[7],1.18 µM (active)
same,EC50,Streptococcus,1.75 µM (active)

# Source: ChEMBL document CHEMBL1201862, “PubChem BioAssay data set” (2004)
